Measured values reported in patent US9567300B2, “Hexahydropentaleno derivatives, preparation method and use in medicine thereof” (SUNSHINE LAKE PHARMA CO., LTD., priority 2012, dated 2017).

Tests used:
DPP-IV = target: T1, DPP-IV (Homo sapiens, UniProt P27487); assay: Active inhibition DPP-IV assay (Gly-Pro-AMC substrate, fluorescence); type: biochemical; conditions: Gly-Pro-AMC 10 μM, 25 mM Tris pH 8.0
T1 construct: purchased R&D 1180-SE
Method: (§1) The following methods were used for testing the inhibitive action of the compound disclosed herein against DPP-IV, DPP-8 and DPP-9 enzymatic activity. The inhibitive ability of the compound disclosed herein against enzymatic activity of DPP-IV, DPP-8 and DPP-9 was tested. The measurements of the inhibition ratio or the 50% inhibiting concentration IC50 of every compound were based on a fixed quantity of enzyme-substrate mixtures and different concentrations of the test compounds.
DPP-IV enzyme was purchased from R&D, Catalog No. 1180-SE.
(§2) The test compound was dissolved in an appropriate amount of DMSO to prepare 100 mM mother liquor, which was divided into EP tubes and preserved at −20° C. The mother liquor was diluted with an assay buffer to prepare solutions with required concentrations. Sample solutions with different concentrations (4 μL) and certain concentration of DPP-IV (DPP-8 or DPP-9) solution (4 μL) were added into 384-well plates in turn. Referred to the instruction manual, Gly-Pro-AMC was selected as a substrate and the concentration thereof was 10 μM. The 16 mM mother liquor was prepared from the substrate and preserved at −20° C. for use. The 16 mM mother liquor was diluted with an assay buffer to a solution of known concentration. The assay buffer of DPP-IV was 25 mM Tris, and its pH was 8.0. The assay buffers of DPP-8 and DPP-9 were 50 mM Tris, and their pH was 7.5. The substrate mother liquor was diluted with an assay buffer, and the mixture (4 μL) was added into 384-well plates to prepare final solution concentration. The whole process was carried out in an ice bath. After the addition of the components of the assay system was completed, the system was centrifuged. The supernatant was then transferred to an Infinite F200 multifunctional microplate reader, and 20 fluorescence values were recorded every 30 sec. And then Slope (V0) was calculated directly by the software of microplate reader, fetching the data in the linear range. The measured reaction rate and the corresponding inhibition concentration were analyzed. Percent inhibition is I(%)=(V0−Vi)/V0×100%. Vi represents the initial reaction rate at different inhibition concentrations. V0 represents the initial reaction rate without inhibitor. Vi/V0 represents the inhibition level of inhibitor. Relevant curve chart was made with inhibition concentration as a horizontal coordinate and the value of Vi/V0 as a vertical coordinate. The IC50 values were calculated by Graph Pad Prism statistical analysis software.

DPP-8 = target: T2, DPP-8 (Homo sapiens, UniProt Q6V1X1); assay: Active inhibition DPP-8 assay (Gly-Pro-AMC substrate, fluorescence); type: biochemical; conditions: Gly-Pro-AMC 10 μM, 50 mM Tris pH 7.5
T2 construct: purchased Biomol SE-827
Method: as §1
DPP-8 enzyme was purchased from Biomol, Catalog No. SE-827.
as §2

DPP-9 = target: T3, DPP-9 (Homo sapiens, UniProt Q86TI2); assay: Active inhibition DPP-9 assay (Gly-Pro-AMC substrate, fluorescence); type: biochemical; conditions: Gly-Pro-AMC 10 μM, 50 mM Tris pH 7.5
T3 construct: purchased Bioscience 80090
Method: as §1
DPP-9 enzyme was purchased from Bioscience, Catalog No. 80090.
as §2

normal C57BL/6 mice = assay: Effects of DPP-IV inhibitors on the blood glucose of normal C57BL/6 mice (oral glucose tolerance); type: in vivo; conditions: oral 5 mg/kg; for Nor-sugar rate % (5 mg/kg): male C57BL/6 mice, glucose 2.5 g/kg by gavage 30 min after administration; for hypoglycemic activities for C57BL/6 mice: conclusion in words
Method: The effects of the test compounds on the oral glucose tolerance of normal C57BL/6 mice were observed, and the hypoglycemic activities of these compounds in vivo were evaluated preliminarily.
Preparation procedure: Drugs were accurately weighed, and 5 mg of compounds of examples 3, 9 15, 16 and 17 were dissolved respectively in 20 mL of normal saline to obtain 0.25 mg/mL solutions.
Administrated Dose: The oral dose was 5 mg/kg and the gavage dose was 0.02 mL/g.
Test Method: The normal male C57BL/6 mice were grouped randomly into a blank control group, a positive control group, and treatment groups having 7 mice each group.
Administration and Serum Glucose Determination: C57BL/6 mice of each group were fasted for 18 hours before the experiment. The blood was drawn from the caudal vein of the mice and the glucose level was measured by using a blood-glucose meter. After detection, 0.25 mg/mL of positive control, 0.25 mg/mL of examples 3, 9, 15, 16 and 17 and normal saline were respectively administered to the positive control group, treatment groups and blank control group by intragastric administration. The blood glucose level (0 min) of positive control group was measured in 60 min after administration. The blood glucose levels (0 min) of the other groups were measured in 30 min after administration, and then glucose (2.5 g/kg) was administered to the mice through gavage. The blood was drawn from the caudal vein of the mice in 15 min, 30 min, 45 min, 60 min, 120 min after administration. The blood glucose levels of C57BL/6 mice were measured continuously by blood-glucose meter.
1. Glucose concentration-time curve was plotted, and AUC from 0 to 120 min and hypoglycemic rate of each dosage group at blood glucose peak were calculated.
2. Experimental data were represented in x±SD. The data were analyzed by SPSS 16.0 software. The data were compared between multiple groups using nonparametric Kruskal-Wallis H test method.

T2 sequence (Q6V1X1 whole entry): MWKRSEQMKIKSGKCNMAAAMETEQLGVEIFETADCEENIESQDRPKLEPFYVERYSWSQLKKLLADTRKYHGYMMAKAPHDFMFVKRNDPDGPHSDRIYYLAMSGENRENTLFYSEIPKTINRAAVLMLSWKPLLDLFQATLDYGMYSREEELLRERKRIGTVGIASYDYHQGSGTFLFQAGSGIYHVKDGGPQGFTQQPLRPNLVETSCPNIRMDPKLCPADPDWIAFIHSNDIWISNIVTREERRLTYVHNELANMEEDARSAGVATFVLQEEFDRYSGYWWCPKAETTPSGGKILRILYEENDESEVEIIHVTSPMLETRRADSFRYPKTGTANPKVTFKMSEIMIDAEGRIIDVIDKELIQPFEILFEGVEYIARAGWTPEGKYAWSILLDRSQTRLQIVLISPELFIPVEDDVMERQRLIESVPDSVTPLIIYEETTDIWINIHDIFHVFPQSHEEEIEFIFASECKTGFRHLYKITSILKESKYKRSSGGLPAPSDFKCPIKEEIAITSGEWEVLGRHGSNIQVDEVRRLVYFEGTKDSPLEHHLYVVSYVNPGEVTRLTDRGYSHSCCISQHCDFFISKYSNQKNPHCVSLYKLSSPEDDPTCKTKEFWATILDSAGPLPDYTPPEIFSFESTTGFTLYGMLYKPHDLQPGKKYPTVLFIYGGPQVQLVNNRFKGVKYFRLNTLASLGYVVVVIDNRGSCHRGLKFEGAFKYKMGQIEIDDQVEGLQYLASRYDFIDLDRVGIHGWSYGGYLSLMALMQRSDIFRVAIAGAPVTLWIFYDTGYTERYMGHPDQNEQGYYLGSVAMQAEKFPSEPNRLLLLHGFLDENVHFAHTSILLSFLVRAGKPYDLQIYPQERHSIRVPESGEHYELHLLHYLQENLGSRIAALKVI
T1 sequence (P27487 whole entry): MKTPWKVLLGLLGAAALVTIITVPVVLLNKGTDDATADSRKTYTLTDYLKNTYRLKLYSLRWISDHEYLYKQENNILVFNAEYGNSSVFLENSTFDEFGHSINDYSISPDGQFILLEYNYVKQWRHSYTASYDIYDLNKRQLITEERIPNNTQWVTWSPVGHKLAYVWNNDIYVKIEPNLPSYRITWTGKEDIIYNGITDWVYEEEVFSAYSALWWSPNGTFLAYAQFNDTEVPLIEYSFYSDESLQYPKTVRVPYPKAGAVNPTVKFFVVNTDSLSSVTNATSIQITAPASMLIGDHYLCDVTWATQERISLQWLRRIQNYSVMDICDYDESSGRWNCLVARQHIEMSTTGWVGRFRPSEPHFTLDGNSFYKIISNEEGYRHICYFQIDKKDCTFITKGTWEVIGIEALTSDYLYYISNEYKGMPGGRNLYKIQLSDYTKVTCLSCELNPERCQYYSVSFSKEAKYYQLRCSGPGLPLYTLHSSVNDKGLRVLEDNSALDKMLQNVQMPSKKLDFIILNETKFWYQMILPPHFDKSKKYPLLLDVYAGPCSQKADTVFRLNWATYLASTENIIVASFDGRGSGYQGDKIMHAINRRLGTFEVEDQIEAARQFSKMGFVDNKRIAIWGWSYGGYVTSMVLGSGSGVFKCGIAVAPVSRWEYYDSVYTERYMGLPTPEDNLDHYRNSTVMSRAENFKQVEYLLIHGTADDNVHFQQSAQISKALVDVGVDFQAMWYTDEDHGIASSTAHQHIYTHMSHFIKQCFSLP
T3 sequence (Q86TI2 whole entry): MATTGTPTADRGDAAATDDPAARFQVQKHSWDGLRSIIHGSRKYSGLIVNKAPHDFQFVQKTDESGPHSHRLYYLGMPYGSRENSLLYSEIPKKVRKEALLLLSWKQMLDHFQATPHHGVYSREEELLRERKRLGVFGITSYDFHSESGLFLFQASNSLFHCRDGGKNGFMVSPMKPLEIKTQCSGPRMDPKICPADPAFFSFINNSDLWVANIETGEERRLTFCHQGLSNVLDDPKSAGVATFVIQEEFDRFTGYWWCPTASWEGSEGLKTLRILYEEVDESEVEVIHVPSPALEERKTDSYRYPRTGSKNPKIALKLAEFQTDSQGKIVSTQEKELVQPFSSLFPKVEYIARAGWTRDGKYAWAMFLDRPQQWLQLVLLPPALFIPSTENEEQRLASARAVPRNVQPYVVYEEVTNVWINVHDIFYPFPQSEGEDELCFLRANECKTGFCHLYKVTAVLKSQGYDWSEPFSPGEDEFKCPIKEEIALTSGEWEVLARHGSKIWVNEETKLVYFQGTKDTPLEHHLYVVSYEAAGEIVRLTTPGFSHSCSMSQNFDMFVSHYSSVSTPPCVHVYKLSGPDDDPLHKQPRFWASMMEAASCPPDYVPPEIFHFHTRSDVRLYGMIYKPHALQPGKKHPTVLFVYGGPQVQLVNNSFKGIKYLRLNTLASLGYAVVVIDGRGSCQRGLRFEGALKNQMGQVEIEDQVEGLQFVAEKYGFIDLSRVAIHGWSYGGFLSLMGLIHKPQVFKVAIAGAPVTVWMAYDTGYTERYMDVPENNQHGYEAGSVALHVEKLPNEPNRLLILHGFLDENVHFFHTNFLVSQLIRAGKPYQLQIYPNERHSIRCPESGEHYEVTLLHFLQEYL

Row | IC50 (DPP-IV) | IC50 (DPP-8) | IC50 (DPP-9) | Structure (SMILES) | Nor-sugar rate % (5 mg/kg) (normal C57BL/6 mice) | hypoglycemic activities for C57BL/6 mice (normal C57BL/6 mice)
1 | 1.37 nM | 12800 nM | 340 nM | C[C@@]1(NCC(=O)N2CCC[C@H]2C#N)C[C@H]2CC(C#N)C[C@H]2C1 (stereo partly drawn) [Example 16, (2S)-1-(2-(((2s,3aR,6aS)-5-cyano-2-methyloctahydropentalen-2-yl)amino)acetyl)pyrrolidine-2-carbonitrile] | 24.69% | good hypoglycemic activities
2 | 1.56 nM | 1260 nM | 20 nM | C[C@@]1(NCC(=O)N2C[C@@H](F)C[C@H]2C#N)C[C@H]2CC(C#N)C[C@H]2C1 (stereo partly drawn) [Example 15, (2S,4S)-1-(2-(((2s,3aR,6aS)-5-cyano-2-methyloctahydropentalen-2-yl)amino)acetyl)-4-fluoropyrrolidine-2-carbonitrile] | 24.72% | good hypoglycemic activities
